Holding throughout (test): NCI-60 cell line screen, 48 h
Test [1] deals with OVCAR-4 ovarian.
Test [2] has as its system UACC-257 melanoma.
Test [3] relates to CAKI-1 renal.
Test [4] deals with RPMI-8226 leukemia.
Test [5] concerns SK-MEL-28 melanoma.
Test [6] has as its system SK-MEL-5 melanoma.
The subject of test [7] is BT-549 breast.
Test [8] relates to MALME-3M melanoma.
The subject of test [9] is SF-295 CNS.
In test [10] the test system is MDA-MB-231 breast.

The results in this text go back to PubChem BioAssay (NCI).

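Values below derive from 48-hour exposures of cells grown in 96-well plates, with endpoints linearly interpolated between the two concentrations bracketing the appropriate inhibition level. Here, GI50 denotes the concentration required for 50% inhibition of growth. TGI: total growth inhibition.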

As to `C/C(=C(/c1ccc(O)cc1)c1ccc(OCCN2CCCC2)cc1)c1ccccc1`, the GI50 in test [1] is 4.7 µM; in test [2], 2.03 µM; in test [3] it was 3.02 µM; in test [4], 2.4 µM; in [5] it was 1.65 µM; in test [6] it was 1.72 µM. Moreover, the GI50 in test [7] is 4.2 µM; in test [8], 1.7 µM; in test [9], 1.95 µM; in test [10], 3.51 µM. Besides, the TGI came out at 17.5 µM in [1]; 3.93 µM in test [2]; 13.9 µM in [3]; 6.72 µM in [4]; 3.41 µM in [5]; 3.1 µM in test [6]. Moreover, the TGI came out at 15.7 µM in test [7], 3.41 µM in test [8], 4.19 µM in [9] and 8.4 µM in [10].

Take `CC(C)(C)n1cc(-c2ccnc(NCCNS(=O)(=O)c3ccc(Br)cc3)c2)c(-c2cccc(O)c2)n1`: the GI50 was 1.55 µM in test [1]; 1.93 µM in test [2]; 2.17 µM in test [3]; 1.6 µM in [4]; 1.75 µM in test [5]; 1.36 µM in test [6]. Besides, the GI50 is 1.64 µM in test [7], 1.67 µM in test [8], 1.82 µM in test [9] and 1.91 µM in test [10]. For the same molecule, the TGI in test [1] was 3.59 µM; in test [2], 4.76 µM; in test [3], 6.07 µM; in test [4], 5 µM; in test [5] it was 3.26 µM; in test [6] it was 2.67 µM. Besides, the TGI stood at 3.2 µM in test [7], 3.34 µM in [8], 3.61 µM in [9] and 4.07 µM in test [10].

Regarding `CCN(CC)CCC(=O)Nc1ccc(Cn2nnc3c2C(=O)c2nnn(Cc4ccc(NC(=O)CCN(CC)CC)cc4)c2C3=O)cc1`, the GI50 in test [1] is 0.133 µM; in test [2] it was 1.01 µM; in test [3] it was above 71.1 µM; in test [4], 0.53 µM; in test [5], 1.09 µM; in [6] it was 0.485 µM. Besides, the GI50 was 1.64 µM in [7], 0.137 µM in [8], 1.93 µM in test [9] and 0.253 µM in test [10]. Also, the TGI in test [1] was 0.263 µM; in [2], 2.79 µM; in test [3] it was above 100 µM; in [4], 3.15 µM; in test [5], 2.82 µM; in [6] it was 1.25 µM. The TGI in [7] was found to be 3.06 µM; in test [8] it was 0.294 µM; in test [9], 5.33 µM; in test [10] it was 10.2 µM.

`Cc1nnc([S-])s1.[Au+].c1ccc([PH+](c2ccccc2)c2ccccc2)cc1`: the GI50 in test [2] was 1.52 µM; in test [3], 1.64 µM; in [4], 1.8 µM; in test [5], 1.57 µM; in test [6], 1.51 µM; in test [7], 1.47 µM. Besides, the GI50 was 1.59 µM in [8], 1.74 µM in test [9] and 1.65 µM in test [10]. Also, the TGI was 3.09 µM in test [2]; 3 µM in [3]; 5.31 µM in [4]; 2.99 µM in test [5]; 2.97 µM in test [6]; 2.88 µM in test [7]. Besides, the TGI was 3 µM in test [8], 3.21 µM in [9] and 3.05 µM in test [10].

As to `Cc1c(C(C)C)cc(OCCO)cc1C(C)C`, the TGI in test [1] was above 100 µM; in test [2], above 100 µM; in test [3] it was above 100 µM; in test [4], 74.3 µM; in test [5], above 100 µM; in [6], 38.1 µM. Further, the TGI in test [7] was above 100 µM; in test [9], above 100 µM; in [10], 80 µM.

Take `CC1Cc2c(N(C)C)ncnc2N(C)c2ccc(Cl)cc21` (stereo not drawn): the GI50 is 9.76 µM in [1]; 3.12 µM in [3]; 3.53 µM in test [4]; 10.8 µM in [5]; 3.65 µM in [6]; 6.63 µM in [7]. Besides, the GI50 in [8] is 3.73 µM; in [9], 1.98 µM; in [10] it was 5.84 µM. For the same molecule, the TGI is above 100 µM in [1]; above 100 µM in test [3]; 17.3 µM in test [4]; above 100 µM in [5]; 13.8 µM in [6]; 32.1 µM in test [7]. The TGI in [8] was determined as 60 µM; in [9], 9.85 µM; in [10], 55.4 µM.

For `Oc1cccc(-c2nc3ccccc3s2)c1`, the TGI in [1] was above 100 µM; in test [2] it was above 100 µM; in [3], 66 µM; in test [4], above 100 µM; in test [5], above 100 µM; in test [7] it was above 100 µM. For the same molecule, the TGI in [8] turned out to be 31.1 µM; in test [9], 86.7 µM; in [10], 56.2 µM.

Regarding `CN1C(=O)c2cc(Cl)nc3c(NC(=O)c4cccc(Cl)c4)c(Cl)c(NC(=O)c4cccc(Cl)c4)c1c23`, the GI50 in test [1] is 1.7 µM; in test [2] it was 1.91 µM; in test [4], 3.63 µM; in test [5], 1.78 µM; in test [6], 2.09 µM; in test [7], 1.64 µM. For the same molecule, the GI50 in [8] is 1.66 µM; in test [9], 2.87 µM; in test [10], 2.05 µM. Besides, the TGI was 3.3 µM in test [1]; 3.55 µM in test [2]; 32.6 µM in test [4]; 3.45 µM in [5]; 4.36 µM in test [6]; 3.19 µM in test [7]. The TGI in test [8] amounted to 3.44 µM; in test [9], 11.6 µM; in [10], 4.24 µM.

Consider `COc1ccc(C[C@H]2C[C@@H](O)[C@@H](C)C/C=C/Cc3cccc(O)c3C(=O)O2)cn1`, for which the GI50 is 23.7 µM in test [1]; 21.5 µM in test [2]; 21.8 µM in [3]; 27.2 µM in [5]; 17.6 µM in test [6]; 20.7 µM in [7]. The GI50 in [9] is 18 µM; in [10] it was 16.4 µM. Besides, the TGI in test [1] came out at 74.1 µM; in test [2], 71.4 µM; in test [3] it was 54.6 µM; in test [5], 78.7 µM; in test [6] it was 35.1 µM; in [7], 48.8 µM. Besides, the TGI turned out to be 41.5 µM in test [9] and 39.6 µM in test [10].
